Tests used:
MKN45 cells = assay: Test D: cellular proliferation by 14C-thymidine pulse, MKN45 cells; type: cell-based; details: Homo sapiens, MKN-45, cellular proliferation by 14C-thymidine pulse; cell line not stated (HCT116 or MKN45)
Procedure, shortened: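 MKN45 cells (7500/well, RPMI + 10% foetal calf serum) treated with 10 concentrations, 10000 to 0.3 nM in 3-fold steps, duplicate. 14C-thymidine (0.1 μCi/well) added at 72 h; incorporation counted after 24 h pulse, 96 h total treatment.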

MET = biological target: T1, MET (Homo sapiens, UniProt P08581); assay: Test C: inhibition of the autophosphorylation of MET, ELISA technique (pppY1230, 1234, 1235), MKN45 cells; type: cell-based
T1 construct: endogenous in cells; host or cells: MKN45 cells
T1 sequence (P08581 25-1390): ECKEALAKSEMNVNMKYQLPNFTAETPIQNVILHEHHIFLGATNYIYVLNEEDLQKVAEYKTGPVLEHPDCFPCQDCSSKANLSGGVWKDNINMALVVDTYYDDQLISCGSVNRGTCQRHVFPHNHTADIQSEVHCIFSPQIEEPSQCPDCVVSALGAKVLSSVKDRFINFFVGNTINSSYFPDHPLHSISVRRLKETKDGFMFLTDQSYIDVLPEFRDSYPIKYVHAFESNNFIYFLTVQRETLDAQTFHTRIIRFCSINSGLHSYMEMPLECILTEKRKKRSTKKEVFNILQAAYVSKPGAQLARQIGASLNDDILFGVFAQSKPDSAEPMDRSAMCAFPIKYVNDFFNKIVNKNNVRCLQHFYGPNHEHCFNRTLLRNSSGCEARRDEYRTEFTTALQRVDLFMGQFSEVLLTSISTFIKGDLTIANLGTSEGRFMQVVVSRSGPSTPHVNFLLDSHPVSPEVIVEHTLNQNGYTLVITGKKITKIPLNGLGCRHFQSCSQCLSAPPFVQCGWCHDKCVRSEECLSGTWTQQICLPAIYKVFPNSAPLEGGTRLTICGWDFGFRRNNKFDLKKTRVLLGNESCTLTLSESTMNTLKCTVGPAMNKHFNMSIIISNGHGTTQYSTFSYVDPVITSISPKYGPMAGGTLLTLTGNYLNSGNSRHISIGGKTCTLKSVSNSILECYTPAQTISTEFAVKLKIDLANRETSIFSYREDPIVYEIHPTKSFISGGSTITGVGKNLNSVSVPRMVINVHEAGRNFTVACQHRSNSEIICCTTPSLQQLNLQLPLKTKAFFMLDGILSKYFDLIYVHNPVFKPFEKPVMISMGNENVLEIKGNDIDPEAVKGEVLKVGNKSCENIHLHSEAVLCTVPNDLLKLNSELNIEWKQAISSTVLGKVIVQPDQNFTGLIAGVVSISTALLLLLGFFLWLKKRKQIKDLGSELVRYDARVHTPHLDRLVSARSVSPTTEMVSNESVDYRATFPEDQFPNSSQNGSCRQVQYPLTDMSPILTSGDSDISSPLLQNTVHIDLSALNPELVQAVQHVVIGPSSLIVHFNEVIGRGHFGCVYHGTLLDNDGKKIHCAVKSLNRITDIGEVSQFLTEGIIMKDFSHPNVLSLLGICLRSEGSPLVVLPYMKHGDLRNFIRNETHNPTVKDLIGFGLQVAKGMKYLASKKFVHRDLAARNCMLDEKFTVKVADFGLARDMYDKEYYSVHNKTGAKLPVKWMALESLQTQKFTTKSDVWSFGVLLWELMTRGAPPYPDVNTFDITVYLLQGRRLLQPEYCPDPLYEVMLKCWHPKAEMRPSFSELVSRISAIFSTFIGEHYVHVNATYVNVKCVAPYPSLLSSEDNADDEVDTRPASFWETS
Procedure, shortened: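 MKN45 cells adhered 24 h, then treated 1 h with compound at 6 concentrations in duplicate, final range 10000 to 30 nM. Lysates assayed by phospho-MET (pY1230/1234/1235) sandwich ELISA with HRP chromogen read at 450 nm.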

| IC50 (MKN45 cells) | melting point | IC50 (MET) | SMILES |
| --- | --- | --- | --- |
| 0.5 to 10 µM | 138 to 169 °C | < 0.5 µM | CC(Oc1ccc2nc(NC(=O)NCCN3CCNCC3)sc2c1)c1c(Cl)ccc(F)c1Cl.O=C(O)C(F)(F)F (stereo not drawn) [Example 37, 1-{6-[1-(2,6-Dichloro-3-fluorophenyl)ethoxy]-1,3-benzothiazol-2-yl}-3-(2-piperazin-1-ylethyl)urea trifluoroacetate] |
| > 10 µM | 187 °C | 0.5 to 10 µM | CC(Oc1ccc2nc(NC(=O)NCCN3CCOCC3)sc2c1)c1c(F)ccc(F)c1F (stereo not drawn) [Example 60, 1-(2-morpholin-4-ylethyl)-3-{6-[1-(2,3,6-trifluorophenyl)ethoxy]-1,3-benzothiazol-2-yl}urea] |
| < 0.5 µM | 200 °C | < 0.5 µM | CC(Oc1ccc2nc(NC(=O)NCCN3CCOCC3)sc2c1)c1c(F)ccc(Cl)c1Cl (stereo not drawn) [Example 61, 1-{6-[1-(2,3-dichloro-6-fluorophenyl)ethoxy]-1,3-benzothiazol-2-yl}-3-(2-morpholin-4-ylethyl)urea] |
| > 10 µM | 150 to 160 °C | 0.5 to 10 µM | O=C(NCCN1CCOCC1)Nc1nc2ccc(OC(c3c(Cl)cccc3Cl)C(F)(F)F)cc2s1 (stereo not drawn) [Example 64, 1-{6-[1-(2,6-dichlorophenyl)-2,2,2-trifluoroethoxy]-1,3-benzothiazol-2-yl}-3-(2-morpholin-4-ylethyl)urea] |
| 0.5 to 10 µM | 141 to 145 °C | 0.5 to 10 µM | CC(Oc1ccc2nc(NC(=O)CCCN3CCOCC3)sc2c1)c1c(Cl)ccc(F)c1Cl (stereo not drawn) [Example 65, N-{6-[1-(2,6-dichloro-3-fluorophenyl)ethoxy]-1,3-benzothiazol-2-yl}-4-(morpholin-4-yl)butanamide] |
| 0.5 to 10 µM | 105 to 110 °C | < 0.5 µM | CC(Oc1ccc2nc(NC(=O)NCCN3CCN(C)CC3)sc2c1)c1c(F)ccc(Cl)c1Cl (stereo not drawn) [Example 108, 1-{6-[1-(2,3-dichloro-6-fluorophenyl)ethoxy]-1,3-benzothiazol-2-yl}-3-[2-(4-methylpiperazin-1-yl)ethyl]urea] |
| 0.5 to 10 µM | 102 to 105 °C | < 0.5 µM | CC(Oc1ccc2nc(NC(=O)NCCC3CCCN3C)sc2c1)c1c(F)ccc(Cl)c1Cl (stereo not drawn) [Example 110, 1-{6-[1-(2,3-dichloro-6-fluorophenyl)ethoxy]-1,3-benzothiazol-2-yl}-3-[2-(1-methylpyrrolidin-2-yl)ethyl]urea] |
| < 0.5 µM | 110 to 115 °C | < 0.5 µM | CC(Oc1ccc2nc(NC(=O)NCCN3CCCC3)sc2c1)c1c(F)ccc(Cl)c1Cl (stereo not drawn) [Example 120, 1-{6-[1-(2,3-dichloro-6-fluorophenyl)ethoxy]-1,3-benzothiazol-2-yl}-3-[2-(pyrrolidin-1-yl)ethyl]urea] |
| 0.5 to 10 µM | 189 °C | < 0.5 µM | CC(Oc1ccc2nc(NC(=O)NCCN3CCOCC3)sc2c1)c1c(Cl)ccc(Cl)c1Cl (stereo not drawn) [Example 124, 1-[2-(morpholin-4-yl)ethyl]-3-{6-[1-(2,3,6-trichlorophenyl)ethoxy]-1,3-benzothiazol-2-yl}urea] |
| 0.5 to 10 µM | 189 °C | 0.5 to 10 µM | CC(Oc1ccc2nc(NC(=O)NCCN3CCCC3)sc2c1)c1c(Cl)ccc(Cl)c1Cl (stereo not drawn) [Example 125, 1-[2-(pyrrolidin-1-yl)ethyl]-3-{6-[1-(2,3,6-trichlorophenyl)ethoxy]-1,3-benzothiazol-2-yl}urea] |

The remaining lines, values behind:

| SMILES | IC50 (MKN45 cells) | melting point | IC50 (MET) |
| --- | --- | --- | --- |
| CC(Oc1ccc2nc(NC(=O)C3CC3)sc2c1)c1c(Cl)ccc(F)c1Cl (stereo not drawn) [Example 66, N-{6-[1-(2,6-dichloro-3-fluorophenyl)ethoxy]-1,3-benzothiazol-2-yl}cyclopropanecarboxamide] | 0.5 to 10 µM | 194 to 199 °C | < 0.5 µM |
| CC(Oc1cc2sc(NC(=O)CCCN3CCCC3)nc2cc1F)c1c(Cl)ccc(F)c1Cl (stereo not drawn) [Example 68, N-{6-[1-(2,6-dichloro-3-fluorophenyl)ethoxy]-5-fluoro-1,3-benzothiazol-2-yl}-4-(pyrrolidin-1-yl)butanamide] | 0.5 to 10 µM | 153 to 157 °C | < 0.5 µM |
| CC(Oc1cc2sc(NC(=O)CN3CCNCC3)nc2cc1F)c1c(Cl)ccc(F)c1Cl (stereo not drawn) [Example 69, N-{6-[1-(2,6-dichloro-3-fluorophenyl)ethoxy]-5-fluoro-1,3-benzothiazol-2-yl}-2-(piperazin-1-yl)acetamide] | 0.5 to 10 µM | 188 to 190 °C | < 0.5 µM |
| CCN1CCN(CCNC(=O)Nc2nc3cc(F)c(OC(C)c4c(Cl)ccc(F)c4Cl)cc3s2)CC1 (stereo not drawn) [Example 100, 1-{6-[1-(2,6-dichloro-3-fluorophenyl)ethoxy]-5-fluoro-1,3-benzothiazol-2-yl}-3-[2-(4-ethylpiperazin-1-yl)ethyl]urea] | < 0.5 µM | 150 to 152 °C | < 0.5 µM |
| CC(Oc1cc2sc(NC(=O)NCCOCC3CC3)nc2cc1F)c1c(Cl)ccc(F)c1Cl (stereo not drawn) [Example 103, 1-[2-(cyclopropylmethoxy)ethyl]-3-{6-[1-(2,6-dichloro-3-fluorophenyl)ethoxy]-5-fluoro-1,3-benzothiazol-2-yl}urea] | 0.5 to 10 µM | 178 to 184 °C | 0.5 to 10 µM |
| COCCCNC(=O)Nc1nc2cc(F)c(OC(C)c3c(Cl)ccc(F)c3Cl)cc2s1 (stereo not drawn) [Example 104, 1-{6-[1-(2,6-dichloro-3-fluorophenyl)ethoxy]-5-fluoro-1,3-benzothiazol-2-yl}-3-(3-methoxypropyl)urea] | 0.5 to 10 µM | 175 °C | < 0.5 µM |
| CC(Oc1cc2sc(NC(=O)NCCCO)nc2cc1F)c1c(Cl)ccc(F)c1Cl (stereo not drawn) [Example 105, 1-{6-[1-(2,6-dichloro-3-fluorophenyl)ethoxy]-5-fluoro-1,3-benzothiazol-2-yl}-3-(3-hydroxypropyl)urea] | 0.5 to 10 µM | 158 °C | < 0.5 µM |
| CC(Oc1cc2sc(NC(=O)NCCN3CCOCC3)nc2cc1Cl)c1c(Cl)ccc(F)c1Cl (stereo not drawn) [Example 106, 1-{5-chloro-6-[1-(2,6-dichloro-3-fluorophenyl)ethoxy]-1,3-benzothiazol-2-yl}-3-[2-(morpholin-4-yl)ethyl]urea] | 0.5 to 10 µM | 196 to 198 °C | 0.5 to 10 µM |
| CC(Oc1cc2sc(NC(=O)NCCN3CCOCC3)nc2cc1F)c1c(F)ccc(Cl)c1Cl (stereo not drawn) [Example 111, 1-{6-[1-(2,3-dichloro-6-fluorophenyl)ethoxy]-5-fluoro-1,3-benzothiazol-2-yl}-3-[2-(morpholin-4-yl)ethyl]urea] | 0.5 to 10 µM | 220 to 225 °C | 0.5 to 10 µM |
| CC(Oc1cc2sc(NC(=O)NCCCN3CCCC3=O)nc2cc1F)c1c(F)ccc(Cl)c1Cl (stereo not drawn) [Example 114, 1-{6-[1-(2,3-dichloro-6-fluorophenyl)ethoxy]-5-fluoro-1,3-benzothiazol-2-yl}-3-[3-(2-oxopyrrolidin-1-yl)propyl]urea] | 0.5 to 10 µM | 195 °C | < 0.5 µM |
| CC(Oc1cc2sc(NC(=O)NCCN3CCN(C)CC3)nc2cc1F)c1c(F)ccc(Cl)c1Cl (stereo not drawn) [Example 115, 1-{6-[1-(2,3-dichloro-6-fluorophenyl)ethoxy]-5-fluoro-1,3-benzothiazol-2-yl}-3-[2-(4-methylpiperazin-1-yl)ethyl]urea] | < 0.5 µM | 120 °C | < 0.5 µM |
| CC(Oc1cc2sc(NC(=O)NCCN3CCCC3)nc2cc1F)c1c(F)ccc(Cl)c1Cl (stereo not drawn) [Example 118, 1-{6-[1-(2,3-dichloro-6-fluorophenyl)ethoxy]-5-fluoro-1,3-benzothiazol-2-yl}-3-[2-(pyrrolidin-1-yl)ethyl]urea] | 0.5 to 10 µM | 191 °C | < 0.5 µM |
| Cc1ccc(F)c(C(C)Oc2ccc3nc(NC(=O)NCCN4CCOCC4)sc3c2)c1F (stereo not drawn) [Example 123, 1-{6-[1-(2,6-difluoro-3-methylphenyl)ethoxy]-1,3-benzothiazol-2-yl}-3-[2-(morpholin-4-yl)ethyl]urea] | 0.5 to 10 µM | 92 to 95 °C | 0.5 to 10 µM |
| CC(Oc1cc2sc(NC(=O)NCCN3CCCC3)nc2cc1F)c1c(Cl)ccc(Cl)c1Cl (stereo not drawn) [Example 126, 1-{5-fluoro-6-[1-(2,3,6-trichlorophenyl)ethoxy]-1,3-benzothiazol-2-yl}-3-[2-(pyrrolidin-1-yl)ethyl]urea] | 0.5 to 10 µM | 103 to 107 °C | 0.5 to 10 µM |
| CNCCCNC(=O)Nc1nc2cc(F)c(OC(C)c3c(Cl)ccc(F)c3Cl)cc2s1 (stereo not drawn) [Example 127, 1-{6-[1-(2,6-dichloro-3-fluorophenyl)ethoxy]-5-fluoro-1,3-benzothiazol-2-yl}-3-[3-(methylamino)propyl]urea] | 0.5 to 10 µM | 183 °C | < 0.5 µM |
| CC(Oc1cc2sc(NC(=O)NCCCN)nc2cc1F)c1c(Cl)ccc(F)c1Cl (stereo not drawn) [Example 128, 1-(3-aminopropyl)-3-{6-[1-(2,6-dichloro-3-fluorophenyl)ethoxy]-5-fluoro-1,3-benzothiazol-2-yl}urea] | 0.5 to 10 µM | 163 °C | < 0.5 µM |
| CC(Oc1cc2sc(NC(=O)NCC(=O)N3CCN(C)CC3)nc2cc1F)c1c(Cl)ccc(F)c1Cl (stereo not drawn) [Example 129, 1-{6-[1-(2,6-dichloro-3-fluorophenyl)ethoxy]-5-fluoro-1,3-benzothiazol-2-yl}-3-[2-(4-methylpiperazin-1-yl)-2-oxoethyl]urea] | 0.5 to 10 µM | 235 to 238 °C | < 0.5 µM |
